Laboratory results as given in patent publication US8318710B2, “Skin treatments” (priority 2003, dated 2012).
Like-named read-outs stand apart in the source and are kept apart here.

Legend:
[1] = system: RAR reporter gene construct (RAREs) with over-expressed RARγ, RXRα and LXRα in Cos-7 cells; details: 24 hours, fold activation over vehicle (ethanol) control
[2] = system: CRABPII protein in primary dermal fibroblasts; test: Fibroblast expression of CRABPII (Western blot); assay type: cell-based; details: 24 hours; for Band Intensity (arbitrary units): CRABPII band; for Relative band intensity: relative to vehicle
Description: Cells were then plated out in 12 well plates at 38,000 cells per well, and incubated for 24 hours. […] Cells were treated with vehicle (ethanol) or 22R hydroxycholesterol and/or retinoic acid in 1 ml fresh medium (DMEM plus 10% FCS). Treatments were prepared as fresh 1000× stocks and diluted into medium immediately before addition to the cells. […] Cells were washed in 1 ml phosphate buffer saline and trypsinised from the plates. Cells were pelleted at 13000 g for 5 min and washed with 1 ml PBS. Cells were re-pelleted and re-suspended in protein lysis buffer (4M urea, 0.5% SDS, 10 mM EDTA in PBS with protease inhibitor cocktail). Samples were equilibrated for total protein content and the proteins separated by SDS-PAGE and blotted to nitrocellulose. Membranes were probed with antisera against the CRABPII protein and detected by ECL-plus. Intensity of signal was captured using a STORM scanner and quantified using ImageQuant 5.2.

Structure (SMILES)	Fold activity +/− sd (n = 3) ([1]; 35 μM 22R hydroxycholesterol)	% change from vehicle ([2]; 5 μM 22R-hydroxycholesterol) [%]	Band Intensity (arbitrary units) ([2]; 5 μM 22R-hydroxycholesterol)	Relative band intensity ([2]; 5 μM 22R-hydroxycholesterol)	Fold activity +/− sd (n = 3) ([1]; 0.1 μM all-trans retinoic acid)	% change from vehicle ([2]; 1 nM all-trans retinoic acid)	Band Intensity (arbitrary units) ([2]; 1 nM all-trans retinoic acid)	Relative band intensity ([2]; 1 nM all-trans retinoic acid)
CC(C)CC[C@@H](O)[C@@H](C)[C@H]1CC[C@H]2[C@@H]3CC=C4C[C@@H](O)CC[C@]4(C)[C@H]3CC[C@]12C [22R hydroxycholesterol]	1.209 +/− 0.030 fold	−0.8	167664.2	0.992	–	–	–	–
CC1=C(/C=C/C(C)=C/C=C/C(C)=C/C(=O)O)C(C)(C)CCC1 [all-trans retinoic acid]	–	–	–	–	1.733 +/− 0.445 fold	+35.3%	228603.88	1.353
